Source: patent publication US6670132B2, “Determining non-nucleic acid molecule binding to target by competition with nucleic acid ligand” (Gilead Sciences, Inc., priority 1999, dated 2003)
[NH2-N] = 2'-amino-2'-deoxy sugar (2'-aminopyrimidine nucleotide) (N: the base)

What was measured:
PDGF-BB [1] = target: T1, PDGF-BB (Homo sapiens, UniProt P01127); experiment: Binding of PDGF aptamers to PDGF-BB
T1 construct: purchased R&D Systems (Minneapolis, Minn.)
Excerpt: For the PDGF competition assay, a DNA PDGF aptamer sequence identified previously was used. The aptamer and methods used herein are described in detail in Example One. Aptamers obtained in this experiment bind preferentially to the B-chain of PDGF in a manner that inhibits receptor binding and PDGF-BB-induced DNA synthesis in vitro. Using photo-crosslinking experiments, it has been shown that a specific nucleotide in the aptamer interacts with phenylalanine-84 of the PDGF B-chain which is located near the region of PDGF know to be involved in receptor binding (Green, L. S. et al. (1996) Biochemistry 35, 14413-24). […] Thus, the aptamer used for competition binding experiments, 20tb, is a 27-mer that binds to PDGF-BB with a Kd of 0.5 nM.
A panel of oligoanions, mostly in the naphthalene sulfonic acid class, were screened for their ability to displace a ^32P-radiolabeled aptamer (20tb) from PDGF-BB. […] A nitrocellulose filter binding method was used to separate bound from unbound aptamer. Structures of competitors used in this competition assay are shown in FIGS. 1A-C along with the Kdc values calculated form the competition profiles (FIG. 2) according to equations (1)-(3) (Experimental Methods). For all competition experiments, the concentration of the ^32P end-labeled 20tb aptamer and PDGF-BB was 1.16 nM and 1.0 nM, respectively. […]

[2] = tested on: wheat germ agglutinin (WGA); experiment: Wheat germ agglutinin aptamer competition assay (displacement of 32P-labeled 11.20, nitrocellulose filter binding); set-up: species or system Triticum vulgare; conditions: 10 nM 32P end-labeled 11.20, 10 nM WGA, room temperature
Description: Small molecule oligosaccharides were screened for their ability to compete with WGA aptamer 11.20 for binding to wheat germ agglutinin protein. The small molecule (or cold 11.20) competitors at varying concentrations were mixed with the 5′-32P end-labeled 11.20 ligand at room temperature. Then WGA was added to the mixture and allowed to equilibrate for 60 minutes at room temperature. The competition mixtures (90 μL volume) all had 32P end-labeled 11.20 at 10 nM, WGA at 10 nM and were in 25 mM Hepes, 137 mM NaCl, 2.7 mM KCl, 1 mM MgCl2, 1 mM CaCl2, 0.067% human serum albumin (HSA), at pH 7.4 (HBSMC). Aptamer bound to WGA was separated from free aptamer by filtration through pre-washed […] nitrocellulose membrane filters. Filters were washed with 5 mL HBSMC at room temperature. The filters were placed in tubes with scintillant and the radioactivity counted to quantitate the fraction of 32P end-labeled 11.20 bound at each competitor concentration.
Competition experiments were analyzed by the following equation to determine the concentration of free protein, [PF], as a function of the total concentration of competitor added, [CT]:
[PF]=[PT]/(1+KdR[RT]/(1+KdR[PF])+KdC[CT]/(1+KdC[PF])) (1)
(§1) where KdR is the binding constant of species R to the protein (assuming 1:1 stoichiometry) and KdC is the binding constant of species C, the competitor, to the protein (assuming 1:1 stoichiometry). Equation (1) was solved to self-consistency of [PF] to a precision of 1×10^−15. Using these values of [PF], the concentration of protein-ligand complex [PR] as a function of [CT] was determined by the following equation:
[PR]=KdR[RT][PF](1+KdC[PF]) (2)
Since the experimental data are expressed as %[PR], the calculated concentration of [PR] was normalized by [PR0], the [PR] in the absence of the competitor. [PR0] was obtained by solving equation (1) where [CT]=0. The maximum (M) and minimum (B) %[PR] were allowed to float during the analysis as shown in the following equation:
%[PR]=[PR]/[PR0](M−B)+B (3)
A non-linear least-squares fitting procedure was used as described by Bates and Watts (Bates, D. M. and Watts, D. G. 1988 in Non-Linear Regression Analysis and its Applications, D. M. Bates and D. G. Watts editors, John Wiley & Sons, NY, N.Y.). […]
A group of carbohydrates related to GlcNAc3 were tested for their ability to displace radiolabeled 11.20 from WGA. […] Structures of competitors used in this assay are shown in FIGS. 3A-C along with the Kdc values calculated from the competition profiles (FIGS. 4A-D) according to equations (1)-(3). […]

WGA = conditions: cited from earlier work; for concentration required to completely inhibit WGA-mediated agglutination: tested previously (U.S. Pat. No. 5,780,228)
PDGF-BB [3] = target: T1, PDGF-BB; experiment: PDGF aptamer competition assay (displacement of 32P-labeled 20tb, nitrocellulose filter binding); conditions: competition with 1.16 nM 32P end-labeled 20tb, 1.0 nM PDGF-BB, 37° C.; calculated from competition profiles by equations (1)-(3); read-out: KdC
Description: Small molecule oligoanions were screened for their ability to compete with PDGF aptamer 20tb for binding to the PDGF-BB protein. The small molecule (or cold 20tb) competitors at varying concentrations were mixed with the 5′-^32P end-labeled 20tb ligand at room temperature. PDGF was then added to the mixture and allowed to equilibrate for 45 minutes at room temperature followed by 15 minutes at 37° C. The competition mixtures (90 μL volume) all had ^32P end-labeled 20tb at 1.16 nM, PDGF-BB at 1 nM and were in 25 mM Hepes, 137 mM NaCl, 2.7 mM KCl, 1 mM MgCl2, 1 mM CaCl2, 0.067% human serum albumin (HSA), at pH 7.4 (HBSMC). […] The filters were placed in tubes with scintillant and the radioactivity counted to quantitate the fraction of ^32P end-labeled 20tb bound at each competitor concentration.
Competition experiments were analyzed by the following equation to determine the concentration of free protein, [PF], as a function of the total concentration of competitor added, [CT]: […]
as §1, with “Equation (1) was solved to self-consistency of [PF] to a precision of 1×10^−15.” left out, “equation: […]” for “equation:”

T1 sequence (P01127 82-190 limits assumed): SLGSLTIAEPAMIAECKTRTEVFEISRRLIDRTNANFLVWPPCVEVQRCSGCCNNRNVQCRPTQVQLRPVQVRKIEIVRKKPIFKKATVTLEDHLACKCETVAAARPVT

With “20ta: synthetic 33-mer DNA oligo, PDGF aptamer, 5′CGGGCGCGTTCTTCGTGGTTACTTTTAGTCCCG (DNA, backbone not given here)” the Kd (PDGF-BB [1]; aptamer binding to PDGF) was 50 pM.

In the case of “20tb: synthetic 27-mer DNA oligo, truncated PDGF aptamer, 5′GGGCCGTTTCGGGTTACTTTTAGTCCC (DNA, backbone not given here)”, the Kd (PDGF-BB [1]; aptamer binding to PDGF-BB) is reported as 500 pM.

For `CC(=O)N[C@H]1[C@H](O[C@H]2[C@H](O)[C@@H](NC(C)=O)C(O)O[C@@H]2CO)O[C@H](CO)[C@@H](O)[C@@H]1O` (some centres unmarked) [(GlcNAc)2, N,N′-diacetylchitobiose], the “ability to displace radiolabeled 11.20 from WGA” value (shortened to “ability”) [2] was “best ligands”.

For `CC(=O)N[C@H]1[C@H](O[C@H]2[C@H](O)[C@@H](NC(C)=O)C(O)O[C@@H]2CO)O[C@H](CO)[C@@H](O[C@@H]2O[C@H](CO)[C@@H](O)[C@H](O)[C@H]2NC(C)=O)[C@@H]1O` (some centres unmarked) [(GlcNAc)3, N,N′,N″-triacetylchitotriose], the “ability” value [2] is given as “best ligands” and the “concentration required to completely inhibit WGA-mediated agglutination” value (WGA) is given as 18.5 µM.

In the case of `CC(=O)N[C@H]1[C@H](O[C@H]2[C@H](O)[C@@H](NC(C)=O)C(O)O[C@@H]2CO)O[C@H](CO)[C@@H](O[C@@H]2O[C@H](CO)[C@@H](O[C@@H]3O[C@H](CO)[C@@H](O)[C@H](O)[C@H]3NC(C)=O)[C@H](O)[C@H]2NC(C)=O)[C@@H]1O` (some centres unmarked) [(GlcNAc)4, N,N′,N″,N′″-tetraacetyltetraose], the “ability” value [2] is reported as “best ligands”.

In the case of `CC(=O)N[C@H]1C(O)O[C@H](CO)[C@@H](O)[C@@H]1O` (stereo partly drawn) [GlcNAc, N-acetyl-D-glucosamine], the “ability” value [2] is listed as “not a competitor” and the “concentration required to completely inhibit WGA-mediated agglutination” value (WGA) is listed as 800 µM.

Work on `O=S(=O)(O)c1ccc(N=Nc2c(S(=O)(=O)O)cc3cc(S(=O)(=O)O)cc(O)c3c2O)cc1` [SPADNS, 2-(4-sulfophenylazo)-1,8-dihydroxy-3,6-naphthalene disulfonic acid] yielded a Kd (PDGF-BB [3]) of 19 µM.

`O=S(=O)(O)c1ccc2c(S(=O)(=O)O)cc(S(=O)(=O)O)cc2c1` [naphthalene 1,3,6-trisulfonic acid] showed a Kd (PDGF-BB [3]) of 870 µM.

B1: 11.20: 98-mer RNA transcript with 2′aminopyrimidine bases, WGA aptamer (nucleic acid)
chain: GGGAAAAGCGAAUCAUACACAAGAUUGGUCGUACUGGACAGAGCCGUGGUAGAGGGAUUGGGACAAAGUGUCAGCUCCGCCAGAGACCAACCGAGAA
modifications: [NH2-N] at CU, RNA at AG, all phosphodiester, methylation of C not given here
For B1, the “inhibition of WGA-mediated agglutination of sheep erythrocytes” value (WGA; as described in U.S. Pat. No. 5,780,228) is given as “potently inhibited”.
